Results from patent US6770020B2 (priority 2001, dated 2004).
“Also recorded” adds a separate entry of the source.

Tests used:
[1] = test system: human glioblastoma cells (TB 10); experiment: Gd-DTPA toxicity by cell counting; format: cell-based
Method: Two effects that may affect the Gd-DTPA uptake kinetics were examined: compound toxicity and cell density. Three independent series of cell cultures were grown at different densities and exposed for up to 120 hours. Cell counting performed at the end of the incubation time either in control or in Gd-treated cultures gave the same cell number.
In addition, some of the cells exposed to Gd-DTPA for 120 hours were re-plated.

[2] = test system: human glioblastoma cells (TB 10); experiment: Cell survival after thermal neutron irradiation of Gd-DTPA-exposed cultures; format: cell-based; settings: for cell death after neutron irradiation: FIG. 5
Method: 5) For neutron bombardment, two series of cell cultures (each one in duplicate) from different passages were plated in plastic “NUNC”-brand flasks (Nalge Nunc International, Rochester, N.Y.) (NUNCLON, 25 cm^2culture area) at a density of 1×10^4 cells/cm^2 and exposed to no Gd-DTPA, 1 mg/ml, 5 mg/ml, or 10 mg/ml GdDTPA, for 72 hours, beginning 24 hours after plating. At the end of the exposure period, the growth media were removed and the flasks filled with Puck's modified saline, in which the cells remained for two hours before neutron bombardment. The cells were then irradiated for one hour under a thermal neutron flux of 3×10^8 n/cm^2s (nominal power 5 kW), at the ENEA's (Ente per le Nuove Tecnologie, L'Energia e L'Ambiente, Rome, Italy) TAPIRO fast Reactor. The fast neutron flux at the center of the irradiation chamber (20 cm^3 cube) was negligible, while the γ average dose was 3.2 Gy/h.^(20) Two hours later, the cells were detached from the plates, and cell survival was measured by cell counting and by the colorimetric MTT assay. The standard deviation of cell counting results on the four culture series was within 10%.
To verify if the 140 μg/ml of Gd retained by glioblastoma cells in the two- to four-hour washout time was still available as an efficient tumoricidal agent for NCT, the cultures were irradiated for one hour with thermal neutrons.
The data of FIG. 5 were obtained by direct living cell count and very similar results were obtained by the use of an MTT assay. As presented in FIG. 5, the control cultures (no Gd) were also affected by neutron irradiation, causing 20% of the cells to die. […] The serum-free environment insures that the DNA-repair cellular mechanism is slowed down, resulting (in principle) in decreased survival of the cells in which the Gd neutron capture reaction induced DNA damage. The 20% cell killing observed in cells not exposed to Gd provides an evaluation of the extent of this phenomenon.

[3] = higher concentrations and prolonged exposure; cited from earlier work
[4] = test system: human glioblastoma cells (TB 10); experiment: ICP-MS Gd uptake by glioblastoma cell cultures exposed to Gd-DTPA; settings: for cellular Gd concentration: 10 mg/ml Gd-DTPA
[5] = test system: human glioblastoma cells (TB 10); experiment: TOF-SIMS analysis of Gd in individual cells; format: cell-based
Text: Time of Flight Secondary Ion Mass-Spectrometry (TOF-SIMS), another technique for microchemical analysis^(22) was utilized to validate data from MEPHISTO spectromicroscopy, in addition to the ICP-MS data. Cell samples were bombarded with either 15 or 25 keV Ga^+ ions, focused in a microscopic beam, which induced desorption of the surface atoms. The emitted ions were then accelerated, and detected by a high resolution mass spectrometer. By scanning the microscopic Ga ion beam, TOF-SIMS produced images of the cell surface, and distribution maps of specific element isotopes, with a spatial resolution of […]. High resolution mass spectra were obtained from microscopic areas, selected as the region of interest in the cell images, to allow quantitative comparison of Gd concentration in sub-cellular regions.
The results obtained in MEPHISTO were corroborated by the TOF-SIMS) data, an independent technique to evaluate elemental distributions at a microscopic scale. Two cells were studied from one of the etched 72-hour exposure samples used in the MEPHISTO experiment. Note in the table that the concentration of Gd is consistently higher in nuclei than in cytoplasm.
TOF-SIMS analysis of a non-etched cell at the nucleus position (also Gd-exposed for 72 hours), was performed before and after strong sputtering to probe the Gd concentration on the membrane and inside the nucleus. The total Gd ion yield, calculated as for the first column of Table 2, gave 0.055 cts/s on the unsputtered sample.
After 30 second sputtering (with 25 keV Ga˜ ions) to remove surface contamination, the total Gd ion yield from the cell membrane was 0.182 cts/s. After 16 minute sputtering to penetrate about […] into the nucleus, the total Gd ion yield was 1.844 cts/s.

[6] = Cell 1, Cytoplasm, 72 hours exposure
[7] = Cell 1, Nucleus, 72 hours exposure
[8] = Cell 2, Cytoplasm, 72 hours exposure
[9] = Cell 2, Nucleus, 72 hours exposure

Structure (SMILES): O=C([O-])CN(CCN(CC(=O)[O-])CC(=O)O)CCN(CC(=O)[O-])CC(=O)O.[Gd+3] [Gd-DTPA, gadolinium diethylene triamine pentaacetic acid]
- growth and morphology after re-plating ([1]; cells exposed 120 hours, re-plated, after one week): grew normally
- cytotoxic or cytostatic effect (cell counting vs. unexposed controls) ([1]; different concentrations of Gd-DTPA, 72 hours): not cytotoxic or cytostatic
- cytotoxic or cytostatic effect (cell counting vs. control) ([1]; exposed for up to 120 hours): did not show any cytotoxic or cytostatic effect; also recorded: no toxic effects; also recorded: no effect on cell survival
- cell death after Gd exposure followed by thermal neutrons ([2]; 140 μg/ml Gd retained after two hours in physiological solution, 1 hour thermal neutrons): 70%
- cell inactivation by Gd plus thermal neutrons vs. thermal neutrons alone ([2]; 70% vs. 20% killing): 3.5 times
- cell death after neutron irradiation ([2]; exposure 1 mg/ml Gd-DTPA 72 hours): not sufficient to induce consistent cell death
- cell death after neutron irradiation ([2]; exposure 10 and 5 mg/ml Gd-DTPA 72 hours): evident and reproducible cell death
- intravascular hemolysis [3]: weak, reversible intravascular hemolysis
- cellular Gd concentration ([4]; 120-hour exposure (maximum)): 600 µg/mL
- cellular Gd concentration ([4]; after 24 hours): more than 250 μg/ml
- cellular Gd concentration vs. exposure time ([4]; 10 mg/ml, up to 120 hours, FIG. 1): increases with the exposure time
- concentration of uptaken Gd vs. exposure concentration ([4]; 1 to 25 mg/ml Gd-DTPA, 72 hours, FIG. 3): increases with the exposure concentration
- maximum cellular concentration relative to the 250 μg/ml recommended for GdNCT ([4]; 120-hour exposure): 2.4 times
- Ratio nucleus:cytoplasm, ^155Gd ([5]; Cell 1, 72 hours exposure): 2.51
- Ratio nucleus:cytoplasm, ^155GdO ([5]; Cell 1, 72 hours exposure): 2.52
- Ratio nucleus:cytoplasm, ^156Gd ([5]; Cell 1, 72 hours exposure): 1.89
- Ratio nucleus:cytoplasm, ^156GdO ([5]; Cell 1, 72 hours exposure): 2.03
- Ratio nucleus:cytoplasm, ^157GdO ([5]; Cell 1, 72 hours exposure): 2.06
- Ratio nucleus:cytoplasm, ^158Gd ([5]; Cell 1, 72 hours exposure): 1.53
- Ratio nucleus:cytoplasm, ^160Gd ([5]; Cell 1, 72 hours exposure): 1.99
- Ratio nucleus:cytoplasm, ^160GdO ([5]; Cell 1, 72 hours exposure): 2.00
- Ratio nucleus:cytoplasm, total Gd ion yield ([5]; Cell 1, 72 hours exposure): 2.02
- Detection Rate, ^155Gd [5, 6]: 0.41 Counts/s
- Detection Rate, ^155GdO [5, 6]: 0.63 Counts/s
- Detection Rate, ^156Gd [5, 6]: 0.91 Counts/s
- Detection Rate, ^156GdO [5, 6]: 0.91 Counts/s
- Detection Rate, ^157GdO [5, 6]: 2.08 Counts/s
- Detection Rate, ^158Gd [5, 6]: 0.89 Counts/s
- Detection Rate, ^160Gd [5, 6]: 0.68 Counts/s
- Detection Rate, ^160GdO [5, 6]: 0.94 Counts/s
- Detection Rate, total Gd ion yield [5, 6]: 6.44 Counts/s
- Detection Rate, ^155Gd [5, 7]: 1.03 Counts/s
- Detection Rate, ^155GdO [5, 7]: 1.59 Counts/s
- Detection Rate, ^156Gd [5, 7]: 1.72 Counts/s
- Detection Rate, ^156GdO [5, 7]: 1.85 Counts/s
- Detection Rate, ^157GdO [5, 7]: 2.23 Counts/s
- Detection Rate, ^158Gd [5, 7]: 1.36 Counts/s
- Detection Rate, ^160Gd [5, 7]: 1.35 Counts/s
- Detection Rate, ^160GdO [5, 7]: 1.88 Counts/s
- Detection Rate, total Gd ion yield [5, 7]: 12.98 Counts/s
- Ratio nucleus:cytoplasm, ^155Gd ([5]; Cell 2, 72 hours exposure): 1.60
- Ratio nucleus:cytoplasm, ^155GdO ([5]; Cell 2, 72 hours exposure): 1.34
- Ratio nucleus:cytoplasm, ^156Gd ([5]; Cell 2, 72 hours exposure): 1.86
- Ratio nucleus:cytoplasm, ^156GdO ([5]; Cell 2, 72 hours exposure): 1.41
- Ratio nucleus:cytoplasm, ^157GdO ([5]; Cell 2, 72 hours exposure): 1.56
- Ratio nucleus:cytoplasm, ^158Gd ([5]; Cell 2, 72 hours exposure): 1.84
- Ratio nucleus:cytoplasm, ^160Gd ([5]; Cell 2, 72 hours exposure): 1.63
- Ratio nucleus:cytoplasm, ^160GdO ([5]; Cell 2, 72 hours exposure): 1.72
- Ratio nucleus:cytoplasm, total Gd ion yield ([5]; Cell 2, 72 hours exposure): 1.60
- Detection Rate, ^155Gd [5, 8]: 0.23 Counts/s
- Detection Rate, ^155GdO [5, 8]: 0.38 Counts/s
- Detection Rate, ^156Gd [5, 8]: 0.37 Counts/s
- Detection Rate, ^156GdO [5, 8]: 0.51 Counts/s
- Detection Rate, ^157GdO [5, 8]: 0.57 Counts/s
- Detection Rate, ^158Gd [5, 8]: 0.32 Counts/s
- Detection Rate, ^160Gd [5, 8]: 0.33 Counts/s
- Detection Rate, ^160GdO [5, 8]: 0.5 Counts/s
- Detection Rate, total Gd ion yield [5, 8]: 3.21 Counts/s
- Detection Rate, ^155Gd [5, 9]: 0.37 Counts/s
- Detection Rate, ^155GdO [5, 9]: 0.51 Counts/s
- Detection Rate, ^156Gd [5, 9]: 0.69 Counts/s
- Detection Rate, ^156GdO [5, 9]: 0.72 Counts/s
- Detection Rate, ^157GdO [5, 9]: 0.89 Counts/s
- Detection Rate, ^158Gd [5, 9]: 0.59 Counts/s
- Detection Rate, ^160Gd [5, 9]: 0.54 Counts/s
- Detection Rate, ^160GdO [5, 9]: 0.86 Counts/s
- Detection Rate, total Gd ion yield [5, 9]: 5.13 Counts/s
- total Gd ion yield ([5]; non-etched cell at the nucleus position, 72 hours exposure, unsputtered sample): 0.055 cts/s
- total Gd ion yield from the cell membrane ([5]; non-etched cell, 72 hours exposure, after 30 second sputtering): 0.182 cts/s
- total Gd ion yield ([5]; non-etched cell, 72 hours exposure, after 16 minute sputtering to penetrate about 1 pm into the nucleus): 1.844 cts/s
